According to patent publication US20090281025A1, “INHIBITION OF TUMOR GROWTH AND METASTASIS BY ATF2-DERIVED PEPTIDES” (Mount Sinai School Of Medicine of New York University, priority 2004, published 2009):

Columns and labels:
SW1 cells = assay: Tumor growth of SW1 cells constitutively expressing ATF2 peptides, injected subcutaneously; format: in vivo, mouse; conditions: 10^6 SW1 cells SC, 18 days; control construct 1100 mm^3
Description: SW1 cells, which constitutively express the peptides indicated in FIG. 4A, were analyzed to detect expression of ATF2 peptides at the RNA level using RT-PCR. The indicated MW bands reflect the expected size product. SW1 cells (10^6) were injected subcutaneously into […] mice and tumor growth was monitored for 18 days, at which point tumors were removed and their size carefully assessed (FIG. 4B). Each group included 6 animals and each experiment was performed twice (P<0.01; T-test).
Inhibition of Tumor Growth. To examine the importance of the JNK association domain on ATF2, the possible role of a smaller peptide containing an intact JNK binding site (i.e., amino acids M^51T^52 of ATF2) was examined. To this end, three peptides of differing sizes (amino acids 51-80, 51-70, and 51-60) were compared to ATF2^51-100 peptide in their ability to inhibit tumor growth of SW1 cells in vivo. RT-PCR reactions confirmed the expression of these peptides' transcripts in the SW1 cells (FIG. 4A). […] However, expression of the 50aa peptide in these cells (constitutive expression based on selection of drug-resistant cells) decreased tumor size to 300 mm^3. Strikingly, constitutive expression of each of the 3 shorter peptides also elicited inhibition of melanoma growth that varied from 400-600 mm^3 (FIG. 4B). […] Further evaluation was performed on this 10 amino acid peptide.

human melanoma cells = conditions: cited from earlier work
[1] = test system: Human melanoma cells LU1205; assay: Caspase and PARP cleavage immunoblot in LU1205 cells; format: cell-based; conditions: peptides by transfection, UCN-01 (5 μm) 24 hours
Description: Human melanoma cells LU1205 were transfected with the nucleic acid molecules that encode either ATF2^51-100 peptide or ATF2^51-60 peptide. Twenty-four hours after transfection, cells were treated with of UCN-01 (5 μm) for 24 hours. Immunoblotting analysis was performed using caspase 9 and PARP antibodies, and β-actin was used as a loading control (FIG. 6A). The same experiment was performed in SW-1 cells (FIG. 6B). Stars point to the position of the uncleaved form whereas arrows point to the cleaved products.
Effect on Apoptosis. Assessed next was the degree of apoptosis in SW1 cells under normal growth (spontaneous) as well as following treatment with chemotherapeutic drugs. Cells were analyzed to detect spontaneous (basal) or induced apoptosis [following treatment with the kinase inhibitor UCN-01 (kindly provided by NCI repository) for 36 hours]. Apoptosis was measured by using FACS (Ivanov et al., Mol. Cell, 2001, 7:517-28) to quantify the percentage of hypodiploid nuclei undergoing DNA fragmentation. Nucleation as a marker of apoptosis was monitored via DAPI staining of cells at indicated time points after their treatment. Caspase activity was monitored by immunoblots using antibodies to caspase 9 (Santa Cruz). PARP cleavage was monitored by corresponding antibodies (PharMingen).

Substance: ATF2^51-100: amino-terminal peptide of ATF2, amino acid residue 51 to 100 (about a 50 amino acid peptide), expressed in tumor cells (MTLKFGPARNDSVIVADQTPTPTRFLKNCEEVGLFNELASPFENEFKKAS; UniProt P15336 51-100, looked up, fragment)
- tumor size (SW1 cells): 300 mm^3
- degree of programmed cell death (spontaneous and induced apoptosis) (human melanoma cells; combined with an inhibitor of the p38 catalytic activity): increase in the degree of programmed cell death
- sensitivity to UV radiation or mitomycin C, adriamycin and verapamil, or UCN-01 (apoptosis assays) (human melanoma cells; compared with three other 50 amino acid amino-terminal ATF2 peptides): most efficient increase in the sensitivity
- cell surface expression of Fas (human melanoma cells; late stage melanoma cells): increased cell surface expression of Fas
- activation of caspase 9 (cleavage fragments) [1]: activation of caspase 9 even prior to treatment with UCN-01
